Measurements: US11324787B2, “Analytical methods and arrays for use in the same” (SENZAGEN AB, priority 2017, dated 2022)
Where “and” joins values, the source holds several entries; their conditions need not be identical. Equal values may be shown once. Entries after “also recorded” stand apart in the source; their conditions may differ. Read-outs that look alike come from different tables or passages of the source.

Legend:
[1] = cited from earlier work; for binary class: sens / non-sens; for true CLP: test set
[2] = cited from earlier work; for binary class (HP*): based on human potency [41] where available, otherwise according to CLP; for HP: human potency, chemicals of random forest training and test set; for Human potency [41]: test set
[3] = test system: myeloid cell line derived from MUTZ-3; experiment: GARD binary classification (SVM on GARD prediction signature, 200 transcripts); conditions: for GARD binary prediction: SVM, median calibrated decision value of replicates >0 = sensitizer
[4] = test system: myeloid cell line derived from MUTZ-3; experiment: Cytotoxicity / viability by flow cytometry (propidium iodide), 24 hours exposure; conditions: yes/no; MUTZ-3 derived cells
[5] = test system: myeloid cell line derived from MUTZ-3
[6] = test system: myeloid cell line derived from MUTZ-3; remark: listed apart in the source
[7] = test system: myeloid cell line derived from MUTZ-3; experiment: GARD random forest model predicting CLP categories (52 transcripts, Example A); conditions: test set; for GARD predicted CLP: majority voting across replicates; for predicted CLP: separate replicates
[8] = test system: myeloid cell line derived from MUTZ-3; remark: listed apart in the source
[9] = CLP annotation of 37 novel chemicals
[10] = Table 9, chemicals training set
[11] = chemicals of random forest training and test set

GARD predicted CLP [7] | predicted CLP [7] | Compound | CLP [1, 9] | CLP [1, 10] | CLP [1, 11] | binary class [1, 11] | binary class (HP*) [2] | GARD binary prediction [3] | cytotox [4] | HP [2] | also measured
– | – | Cc1cccc(O)c1O [3-methylcatechol, 3-Methylcatechol] | 1A | 1A | 1A | sens | S (HP 1-4 = S) | S | yes | – | –
– | – | CC(C)C1=CC2=CC[C@@H]3[C@](C)(CCC[C@@]3(C)C(=O)O)[C@H]2CC1 [abietic acid] | 1B | 1B | 1B | sens | S (HP 1-4 = S) | S | no | 3 | –
– | – | CCCCC/C(=C/c1ccccc1)CO [amylcinnamyl alcohol] | – | – | – | – | – | – | – | – | GARD binary prediction [5]: S; cytotox [6]: yes
– | – | Nc1ccccc1 [aniline] | – | – | – | – | – | – | – | – | GARD binary classification relative to cut-off defined by benchmark samples [5]: close to the cut-off
– | – | CCOC(=O)c1ccc(N)cc1 [benzocaine] | 1B | – | 1B | sens | S (HP 1-4 = S) | – | no | 4 | GARD binary classification relative to cut-off defined by benchmark samples ([3]; misclassified sensitizing chemicals): close to the cut-off
1B | 1B | O=C(OCc1ccccc1)c1ccccc1 [benzyl benzoate] | – | – | – | – | – | S | yes | – | –
– | – | CCCCOCC1CO1 (centres unmarked) [butyl glycidyl ether] | – | – | – | – | – | – | – | – | GARD binary classification relative to cut-off defined by benchmark samples [5]: close to the cut-off; GARD predicted CLP ([8]; human, 24 h): 1A; cytotox [6]: yes
– | – | CN(C)CCCN1c2ccccc2Sc2ccc(Cl)cc21 [chlorpromazine] | 1A | 1A | 1A | sens | S (HP 1-4 = S) | S | yes | 3 | –
– | – | CC(C)=CCCC(C)=CC=O [citral] | 1B | 1B | 1B | sens | S (HP 1-4 = S) | S | yes | 3 | –
– | – | CC(C)=CCCC(C)CCO (centres unmarked) [citronellol] | 1B | 1B | 1B | sens | NS (5-6 = NS) | S | no | 5 | –
– | – | CCOc1cc(C=O)ccc1O [ethyl vanillin] | – | – | – | – | – | – | – | – | GARD predicted CLP [8]: no cat; predicted CLP [8]: no cat; predicted CLP ([8]; human, 24 h): 1B
1A | 1A | O=CCCCC=O [glutaraldehyde] | 1A | – | 1A | sens | S (HP 1-4 = S) | S | yes | 2 | CLP ([1]; Table 10, chemicals test set 1): 1A; true CLP ([1]; per replicate line): 1A; true CLP [1]: 1A; Human potency [41] [2]: 2
– | – | CCCCCCOC(=O)c1ccccc1O [hexyl salicylate] | 1A | 1A | 1A | sens | S (HP 1-4 = S) | S | yes | 4 | –
– | – | CCCCCCCCCCCCCC(=O)OC(C)C [isopropyl myristate] | 1B | 1B | 1B | sens | NS (5-6 = NS) | – | no | 5 | –
1B | no cat and 1B (2×) | C=CC(C)(O)CCC=C(C)C (centres unmarked) [linalool] | 1B | – | 1B | sens | S (HP 1-4 = S) | – | no | 4 | CLP ([1]; Table 10, chemicals test set 1): 1B; true CLP ([1]; per replicate line): 1B; true CLP [1]: 1B; Human potency [41] [2]: 4
1A | 1A (2×) and 1B | CC(C)(O)CCCC1=CCC(C=O)CC1 (centres unmarked) [lyral] | 1B | – | 1B | sens | S (HP 1-4 = S) | S | yes | 2 | CLP ([1]; Table 10, chemicals test set 1): 1B; true CLP ([1]; per replicate line): 1B; true CLP [1]: 1B; Human potency [41] [2]: 2
– | – | CCCCCC#CC(=O)OC [methyl heptine carbonate] | 1A | 1A | 1A | sens | S (HP 1-4 = S) | S | yes | 2 | –
– | – | Oc1c(Cl)c(Cl)c(Cl)c(Cl)c1Cl [pentachlorophenol] | 1B | 1B | 1B | sens | NS (5-6 = NS) | – | no | 5 | –
1A | 1A | CCCOC(=O)c1cc(O)c(O)c(O)c1 [propyl gallate] | 1A | – | 1A | sens | S (HP 1-4 = S) | S | yes | 2 | true CLP ([1]; per replicate line): 1A; true CLP [1]: 1A; Human potency [41] [2]: 2
– | – | dextran | – | no cat | no cat | non-sens | NS (5-6 = NS) | – | no | 6 | –

Compound | GARD predicted CLP [7] | predicted CLP [7] | CLP [1, 9] | CLP [1, 10] | CLP [1, 11] | binary class [1, 11] | binary class (HP*) [2] | GARD binary prediction [3] | cytotox [4] | HP [2] | also measured
CC(C)(c1ccc(OCC2CO2)cc1)c1ccc(OCC2CO2)cc1 (centres unmarked) [bisphenol A-diglycidyl ether] | 1A | 1A | – | – | – | – | – | – | – | – | GARD binary prediction [5]: S
Clc1nc(Cl)nc(Cl)n1 [cyanuric chloride] | no cat; also recorded: no category | no cat (2×) and 1B | 1A | – | 1A | sens | S (HP 1-4 = S) | – | yes | – | CLP ([1]; Table 10, chemicals test set 1): 1A; true CLP ([1]; per replicate line): 1A; true CLP [1]: 1A
O=C1C=CC(=O)C=C1 [p-benzochinone, p-benzoquinone] | 1A | 1A | – | – | – | – | – | – | yes | – | –
